The structures appear in SMILES notation.

For orientation: inhibition means the change of the read-out against control, counted positive when it falls. As usually defined, the IC50 is the concentration that gives 50% inhibition.

What all share (format): binding
For assay [1], the target named is T1, PCAF bromodomain (Homo sapiens, UniProt Q92831).
T1 construct: The PCAF bromodomain (aa 715–831) containing an N-terminal His6-tag was recombinantly expressed in Escherichia coli Rosetta; His6 (N, cleaved yes); made in house; host or cells: Escherichia coli Rosetta
T1 sequence (Q92831 715-831): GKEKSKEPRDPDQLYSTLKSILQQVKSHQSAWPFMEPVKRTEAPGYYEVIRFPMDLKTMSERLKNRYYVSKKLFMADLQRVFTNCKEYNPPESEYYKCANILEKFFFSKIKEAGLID
Put plainly: Thermal stability shift assay (DSF), PCAF bromodomain. To be noted: compound 1 mM, protein 2 μM, average of triplicates.

Assay [2] deals with BAZ2BA (Homo sapiens, UniProt Q9UIF8). The experiment in a line: Alphascreen assay BAZ2BA. In general terms: Bead proximity is the source of the signal in Alpha formats.
Assay [3] deals with T2, ATAD2A (Homo sapiens, UniProt Q6PL18).
T2 sequence (Q6PL18 1-1390): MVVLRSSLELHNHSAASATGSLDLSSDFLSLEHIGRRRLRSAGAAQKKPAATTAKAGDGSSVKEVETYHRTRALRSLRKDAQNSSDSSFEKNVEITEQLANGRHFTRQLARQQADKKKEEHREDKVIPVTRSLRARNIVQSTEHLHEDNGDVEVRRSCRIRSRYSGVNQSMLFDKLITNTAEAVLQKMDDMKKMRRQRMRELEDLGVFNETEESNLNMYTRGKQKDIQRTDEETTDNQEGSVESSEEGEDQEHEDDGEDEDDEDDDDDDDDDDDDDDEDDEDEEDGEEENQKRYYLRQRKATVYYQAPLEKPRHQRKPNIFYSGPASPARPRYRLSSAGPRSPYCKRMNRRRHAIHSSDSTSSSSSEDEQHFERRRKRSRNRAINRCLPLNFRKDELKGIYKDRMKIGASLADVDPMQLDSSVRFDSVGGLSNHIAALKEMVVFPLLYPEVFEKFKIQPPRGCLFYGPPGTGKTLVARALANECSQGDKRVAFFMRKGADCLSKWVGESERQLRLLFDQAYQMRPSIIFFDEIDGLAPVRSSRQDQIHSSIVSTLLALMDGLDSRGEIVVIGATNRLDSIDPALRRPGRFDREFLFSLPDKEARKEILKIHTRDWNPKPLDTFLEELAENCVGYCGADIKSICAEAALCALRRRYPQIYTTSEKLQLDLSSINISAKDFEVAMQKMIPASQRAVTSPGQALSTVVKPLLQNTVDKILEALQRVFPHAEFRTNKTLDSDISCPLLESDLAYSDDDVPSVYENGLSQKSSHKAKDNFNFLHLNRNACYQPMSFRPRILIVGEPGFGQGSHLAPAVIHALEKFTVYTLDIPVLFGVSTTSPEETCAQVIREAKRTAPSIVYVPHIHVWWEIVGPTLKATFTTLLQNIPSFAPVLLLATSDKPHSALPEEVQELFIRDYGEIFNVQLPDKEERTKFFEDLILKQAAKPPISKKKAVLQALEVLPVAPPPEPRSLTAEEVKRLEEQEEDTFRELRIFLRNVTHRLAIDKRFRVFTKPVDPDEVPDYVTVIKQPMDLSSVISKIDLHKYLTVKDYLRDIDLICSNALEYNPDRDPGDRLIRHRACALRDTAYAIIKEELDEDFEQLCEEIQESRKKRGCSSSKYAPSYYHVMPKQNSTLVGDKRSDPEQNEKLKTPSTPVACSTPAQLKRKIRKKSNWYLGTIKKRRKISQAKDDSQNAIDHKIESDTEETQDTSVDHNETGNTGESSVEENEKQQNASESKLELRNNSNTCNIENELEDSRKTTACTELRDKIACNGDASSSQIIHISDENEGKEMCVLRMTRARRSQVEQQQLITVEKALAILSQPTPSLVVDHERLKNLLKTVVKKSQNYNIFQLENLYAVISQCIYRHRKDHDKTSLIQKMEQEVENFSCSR
Put plainly: Alphascreen assay ATAD2A.

Assay [4] deals with T3, BRD9A (Homo sapiens, UniProt Q9H8M2).
T3 sequence (Q9H8M2 1-597): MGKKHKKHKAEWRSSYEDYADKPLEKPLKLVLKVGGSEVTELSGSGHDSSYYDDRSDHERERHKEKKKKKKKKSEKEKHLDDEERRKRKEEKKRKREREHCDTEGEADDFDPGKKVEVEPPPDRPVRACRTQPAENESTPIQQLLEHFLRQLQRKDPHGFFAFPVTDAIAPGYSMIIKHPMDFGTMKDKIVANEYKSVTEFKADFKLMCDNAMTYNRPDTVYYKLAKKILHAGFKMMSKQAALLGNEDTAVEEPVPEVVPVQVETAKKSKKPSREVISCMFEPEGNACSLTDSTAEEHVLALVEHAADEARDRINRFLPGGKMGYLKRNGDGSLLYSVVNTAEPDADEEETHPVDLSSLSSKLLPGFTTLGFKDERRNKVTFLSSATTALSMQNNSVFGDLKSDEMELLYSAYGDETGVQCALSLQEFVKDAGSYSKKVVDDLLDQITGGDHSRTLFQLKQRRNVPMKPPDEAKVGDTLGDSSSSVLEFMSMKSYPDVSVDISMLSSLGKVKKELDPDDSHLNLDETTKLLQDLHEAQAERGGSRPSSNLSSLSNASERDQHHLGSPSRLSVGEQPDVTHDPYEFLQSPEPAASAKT
The experiment in a line: Alphascreen assay BRD9A. To be noted: for % Inhibition at 25 µM / inhibition at 25 µM: BRD9A; for IC50: read-out: BRD9 IC50.

Chain of BAZ2BA (Q9UIF8 whole entry): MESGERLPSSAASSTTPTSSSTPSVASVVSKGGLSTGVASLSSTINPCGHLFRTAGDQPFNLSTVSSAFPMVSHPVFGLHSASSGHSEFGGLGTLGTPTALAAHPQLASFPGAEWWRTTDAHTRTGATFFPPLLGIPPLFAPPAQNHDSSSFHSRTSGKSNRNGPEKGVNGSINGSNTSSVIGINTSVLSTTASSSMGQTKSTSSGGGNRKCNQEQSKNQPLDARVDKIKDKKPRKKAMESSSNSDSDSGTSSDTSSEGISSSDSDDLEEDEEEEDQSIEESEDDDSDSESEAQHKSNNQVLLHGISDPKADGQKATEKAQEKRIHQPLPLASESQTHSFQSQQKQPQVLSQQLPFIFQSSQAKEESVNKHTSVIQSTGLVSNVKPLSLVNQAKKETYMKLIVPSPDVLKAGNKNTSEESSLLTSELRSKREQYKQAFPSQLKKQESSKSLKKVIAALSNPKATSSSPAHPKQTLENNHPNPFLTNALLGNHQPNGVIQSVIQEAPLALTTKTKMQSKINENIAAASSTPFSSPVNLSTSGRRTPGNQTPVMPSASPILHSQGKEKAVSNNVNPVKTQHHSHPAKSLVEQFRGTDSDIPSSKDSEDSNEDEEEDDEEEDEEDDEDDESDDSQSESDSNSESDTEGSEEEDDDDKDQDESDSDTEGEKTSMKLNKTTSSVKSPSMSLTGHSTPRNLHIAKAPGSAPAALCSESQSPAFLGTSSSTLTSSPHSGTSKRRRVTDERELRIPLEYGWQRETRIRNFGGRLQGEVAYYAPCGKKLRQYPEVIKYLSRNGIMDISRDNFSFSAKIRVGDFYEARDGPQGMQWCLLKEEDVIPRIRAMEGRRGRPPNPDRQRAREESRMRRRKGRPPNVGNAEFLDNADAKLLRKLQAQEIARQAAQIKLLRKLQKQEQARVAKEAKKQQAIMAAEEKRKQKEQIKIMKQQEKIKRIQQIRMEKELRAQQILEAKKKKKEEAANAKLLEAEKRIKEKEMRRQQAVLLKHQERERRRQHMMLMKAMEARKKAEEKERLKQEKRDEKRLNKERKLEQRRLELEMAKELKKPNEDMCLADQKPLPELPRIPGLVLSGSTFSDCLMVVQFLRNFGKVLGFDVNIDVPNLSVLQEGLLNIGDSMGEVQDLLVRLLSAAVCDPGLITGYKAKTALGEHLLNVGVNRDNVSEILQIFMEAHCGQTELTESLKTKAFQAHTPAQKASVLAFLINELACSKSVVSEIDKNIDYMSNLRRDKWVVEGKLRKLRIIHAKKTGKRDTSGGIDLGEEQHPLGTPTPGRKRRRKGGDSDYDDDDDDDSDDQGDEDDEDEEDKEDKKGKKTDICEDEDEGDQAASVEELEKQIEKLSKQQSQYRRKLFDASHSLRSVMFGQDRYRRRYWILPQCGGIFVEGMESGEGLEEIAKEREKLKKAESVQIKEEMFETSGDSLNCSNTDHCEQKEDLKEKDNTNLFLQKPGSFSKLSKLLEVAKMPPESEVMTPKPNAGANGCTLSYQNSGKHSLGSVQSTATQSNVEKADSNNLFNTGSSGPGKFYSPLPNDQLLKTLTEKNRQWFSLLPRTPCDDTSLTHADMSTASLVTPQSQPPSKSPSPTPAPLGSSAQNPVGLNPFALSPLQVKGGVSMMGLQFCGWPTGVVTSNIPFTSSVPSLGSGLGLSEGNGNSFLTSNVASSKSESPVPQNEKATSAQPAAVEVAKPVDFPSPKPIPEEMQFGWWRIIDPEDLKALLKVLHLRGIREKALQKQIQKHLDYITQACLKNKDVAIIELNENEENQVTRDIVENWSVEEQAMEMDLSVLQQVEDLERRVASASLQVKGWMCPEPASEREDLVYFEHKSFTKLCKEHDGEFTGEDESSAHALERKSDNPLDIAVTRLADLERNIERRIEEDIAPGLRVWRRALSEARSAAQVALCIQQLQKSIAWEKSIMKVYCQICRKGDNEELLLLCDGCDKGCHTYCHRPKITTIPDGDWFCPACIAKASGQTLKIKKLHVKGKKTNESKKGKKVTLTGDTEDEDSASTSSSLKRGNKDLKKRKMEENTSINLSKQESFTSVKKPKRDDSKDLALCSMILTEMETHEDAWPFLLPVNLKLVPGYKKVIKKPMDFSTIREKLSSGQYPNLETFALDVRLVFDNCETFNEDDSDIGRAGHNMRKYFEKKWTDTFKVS

For the molecule `CC(=O)Nc1ccc2c(C)cc(=O)n(C)c2c1` [compound 12, N-(1,4-dimethyl-2-oxo-1,2-dihydroquinolin-7-yl)acetamide], in assay [1], the “ΔTm (°C) at 1 mM (± SEM)” value is 2.6–2.9 °C. Also, the inhibition at 25 µM is -2.6% in assay [2], 2.4% in assay [3] and 82.8% in assay [4]. Moreover, the “% Inhibition at 25 µM” value in assay [4] is reported as “strong inhibition”. Further, the IC50 in assay [4] worked out at 12.5 µM.

Regarding `Cc1cc(=O)n(C)c2cc(NS(C)(=O)=O)ccc12` [compound 13, N-(1,4-dimethyl-2-oxo-1,2-dihydroquinolin-7-yl)methanesulfonam], the inhibition at 25 µM in assay [2] stood at 5.3%. Also, the inhibition at 25 µM in assay [3] was determined as 1.4%. Also, in assay [4], the “% Inhibition at 25 µM” value is given as “strong inhibition”, the inhibition at 25 µM was 84.1% and the IC50 is 5.7 µM.

Values taken from PMC4770306, “Structure-Based Identification of Inhibitory Fragments Targeting the p300/CBP-Associated Factor Bromodomain” (Journal of Medicinal Chemistry, 2016).
